These results are taken from PubChem BioAssay AID2060337 (Molecular Pharmacology Branch, DTP, NCI, 2025).

This test relates to 832693-133-R-J1-PDC multi-cell spheroids, viability. Put plainly: Anticancer human tumor 832693-133-R-J1-PDC patient-derived head and neck squamous carcinoma cell line growth inhibition [IpAb]. The following applies: for viability, T/C: stronger effect = lower value. The gist of the method:
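Spheroids of 60% malignant cells, 25% HUVEC and 15% MSC were exposed to targeted agents combined with ipatasertib or abemaciclib. Doses started at or near clinical Cmax (10 microM when unknown) and fell in half-log steps.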

[1] abbreviates: curve of first compound, second compound 0.1 µM.
[2] abbreviates: curve of first compound, second compound 0.316 µM.
The mark [3] stands for this setting: curve of first compound, second compound 1 µM.
Setting [4] is: second compound 0.1 µM, first compound 0.0316 µM.
The mark [5] stands for this setting: second compound 0.1 µM, first compound 0.1 µM.
[6] abbreviates: second compound 0.1 µM, first compound 0.316 µM.
[7] abbreviates: second compound 0.1 µM, first compound 1 µM.
Where [8] appears, read: second compound 0.316 µM, first compound 0.0316 µM.
The mark [9] stands for this setting: second compound 0.316 µM, first compound 0.1 µM.
The mark [10] stands for this setting: second compound 0.316 µM, first compound 0.316 µM.
Setting [11] is: second compound 0.316 µM, first compound 1 µM.
[12] abbreviates: second compound 1 µM, first compound 0.0316 µM.
Setting [13] is: second compound 1 µM, first compound 0.1 µM.
The mark [14] stands for this setting: second compound 1 µM, first compound 0.316 µM.
Setting [15] is: second compound 1 µM, first compound 1 µM.

Values joined by “and” are separate entries in the source; they are usually repeats but may differ in a detail not shown here. Equal values may be shown once. Some results are limits rather than exact numbers.

Broadly, the IC50 is the concentration that inhibits the measured activity by half. By viability, T/C is commonly meant the result in the treated group divided by that in the control group, in per cent.
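Note: spheroids exposed to the drugs for one week before the viability readout.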
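Throughout, for viability, T/C: 100% = DMSO vehicle control wells.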

Take `Cn1ncc(Cl)c1-c1cc(C(=O)NC(CN)Cc2cccc(F)c2)sc1Cl` (stereo unspecified) + CCN1CCN(Cc2ccc(Nc3ncc(F)c(-c4cc(F)c5nc(C)n(C(C)C)c5c4)n3)nc2)CC1: the IC50 is 4490 nM (curve of first compound, second compound 0.01 µM); 3210 nM (curve of first compound, second compound 0.0316 µM); < 31.6 nM under setting [1]; < 31.6 nM under setting [2]; < 31.6 nM under setting [3]. The viability, T/C reads like this: (second compound 0.01 µM, first compound 0.0316 µM) 94.4%; (second compound 0.01 µM, first compound 0.1 µM) 91.1%; (second compound 0.01 µM, first compound 0.316 µM) 67.5%; (second compound 0.01 µM, first compound 1 µM) 50.2%; (second compound 0.01 µM, first compound 3.16 µM) 73.7%; (second compound 0.01 µM, first compound 10 µM) 0.29%. Moreover, the viability, T/C by setting is: (second compound 0.0316 µM, first compound 0.0316 µM) 79.4%; (second compound 0.0316 µM, first compound 0.1 µM) 70.2%; (second compound 0.0316 µM, first compound 0.316 µM) 61.3%; (second compound 0.0316 µM, first compound 1 µM) 46.6%; (second compound 0.0316 µM, first compound 3.16 µM) 59.9%; (second compound 0.0316 µM, first compound 10 µM) 0.25%. For the same compound, the viability, T/C reads like this: under setting [4], 64.4%; under setting [5], 50%; under setting [6], 43.4%; under setting [7], 37.8%; (second compound 0.1 µM, first compound 3.16 µM) 49.9%; (second compound 0.1 µM, first compound 10 µM) 0.21%. Moreover, the viability, T/C reads like this: under setting [8], 53.2%; under setting [9], 38.4%; under setting [10], 31.6%; under setting [11], 33.3%; (second compound 0.316 µM, first compound 3.16 µM) 32.1%; (second compound 0.316 µM, first compound 10 µM) 0.19%. Also, the viability, T/C under setting [12] was 47.6%; the viability, T/C under setting [13] is 37.1%; the viability, T/C under setting [14] was 33.2%; the viability, T/C under setting [15] was 32.8%; the viability, T/C (second compound 1 µM, first compound 3.16 µM) was 36%; the viability, T/C (second compound 1 µM, first compound 10 µM) is 0.28%.

For the compound `C=CC(=O)N1CCN(c2nc(=O)n(-c3c(C)ccnc3C(C)C)c3nc(-c4c(O)cccc4F)c(F)cc23)C(C)C1` (stereo unspecified), the viability, T/C by setting is: (compound 0.0316 µM) 105% and 95%; (compound 0.1 µM) 108% and 101%; (compound 0.316 µM) 111% and 103%; (compound 1 µM) 114% and 115%; (compound 3.16 µM) 122% and 110%; (compound 10 µM) 100% and 98.5%. Besides, the IC50 (curve of compound) was > 10000 nM.

On to `COc1c(OCCCN2CCOCC2)ccc2c3n(c(=NC(=O)c4cnc(N)nc4)nc12)CCN3`, for which the viability, T/C is, setting by setting: (compound 0.00316 µM) 93.8% and 99%; (compound 0.01 µM) 67.5% and 74.3%; (compound 0.0316 µM) 21.3% and 29.8%; (compound 0.1 µM) 9.21% and 9.49%; (compound 0.316 µM) 4.67% and 4.86%; (compound 1 µM) 4.72% and 4.34%. In addition, the IC50 (curve of compound) was 15.5 nM and 18.8 nM.

As to `CC(C)(C)c1cnc(CSc2cnc(NC(=O)C3CCNCC3)s2)o1`, the viability, T/C by setting is: (compound 0.00949 µM) 115% and 100%; (compound 0.03 µM) 127%; (compound 0.0949 µM) 143% and 156%; (compound 0.3 µM) 111% and 164%; (compound 0.949 µM) 1.31% and 0.89%; (compound 3 µM) 1.26% and 1.3%. Under “curve of compound”, the IC50 is 570 nM and 626 nM.

With `COc1c(OCCCN2CCOCC2)ccc2c3n(c(=NC(=O)c4cnc(N)nc4)nc12)CCN3` + CC(C)NCC(C(=O)N1CCN(c2ncnc3c2C(C)CC3O)CC1)c1ccc(Cl)cc1, the IC50 by setting is: under setting [1], 15.4 nM; under setting [2], 5.27 nM; under setting [3], < 3.16 nM; (curve of first compound, second compound 3.16 µM) < 3.16 nM; (curve of first compound, second compound 10 µM) < 3.16 nM. Also, the viability, T/C is, setting by setting: (second compound 0.1 µM, first compound 0.00316 µM) 83.1%; (second compound 0.1 µM, first compound 0.01 µM) 63.4%; under setting [4], 27.4%; under setting [5], 7.23%; under setting [6], 4.92%; under setting [7], 4.02%. In addition, the viability, T/C by setting is: (second compound 0.316 µM, first compound 0.00316 µM) 59.6%; (second compound 0.316 µM, first compound 0.01 µM) 37.7%; under setting [8], 19.2%; under setting [9], 7.29%; under setting [10], 3.93%; under setting [11], 3.87%. The viability, T/C (second compound 1 µM, first compound 0.00316 µM) was 43.2%; the viability, T/C (second compound 1 µM, first compound 0.01 µM) is 20.6%; the viability, T/C under setting [12] was 12.7%; the viability, T/C under setting [13] was 6.94%; the viability, T/C under setting [14] was 4.52%; the viability, T/C under setting [15] was 3.27%. The viability, T/C (second compound 3.16 µM, first compound 0.00316 µM) was 30.5%; the viability, T/C (second compound 3.16 µM, first compound 0.01 µM) is 18.4%; the viability, T/C (second compound 3.16 µM, first compound 0.0316 µM) was 11.2%; the viability, T/C (second compound 3.16 µM, first compound 0.1 µM) was 7.39%; the viability, T/C (second compound 3.16 µM, first compound 0.316 µM) was 5.57%; the viability, T/C (second compound 3.16 µM, first compound 1 µM) was 4.86%. Moreover, the viability, T/C (second compound 10 µM, first compound 0.00316 µM) is 32.8%; the viability, T/C (second compound 10 µM, first compound 0.01 µM) was 22.8%; the viability, T/C (second compound 10 µM, first compound 0.0316 µM) is 14.2%; the viability, T/C (second compound 10 µM, first compound 0.1 µM) was 7.94%; the viability, T/C (second compound 10 µM, first compound 0.316 µM) is 5.9%; the viability, T/C (second compound 10 µM, first compound 1 µM) was 5.91%.
